According to US10064885B2, “Metabolic gene, enzyme, and flux targets for cancer therapy” (Massachusetts Institute of Technology, priority 2010, dated 2018):

Columns and labels:
Assay type in all cases: cell-based, human
A549 cells [1] = test: Isotopomer Spectral Analysis (ISA) of lipogenesis in A549 cells
Protocol: (§1) Cell Culture, Isotopic Labeling, and Hypoxia. All cell lines were cultured in Dulbecco's Modified Eagle Medium (DMEM; Mediatech) containing 10% fetal bovine serum (FBS; Invitrogen) and 100 U/ml penicillin/streptomycin (P/S; Mediatech) unless otherwise mentioned. Cell lines were obtained from ATCC unless otherwise noted. The VC3 glioma cell line was provided by Tim Lautenschlaeger (Ohio State University), MDA-MB-231 and HCT116 cell lines were provided by Ferdinando Chiaradonna (University of Milano-Bicocca), MRC5 cells were provided by Stephen Lippard (MIT), SN12C, ACHN, and 786-O cells were provided by Kevin Courtney and Lew Cantley (Harvard Medical School), and MCF10A cells were provided by Joan Brugge (Harvard Medical School), and Huh7 cells were provided by Mike Hemann (MIT). MCF10A cells were cultured in custom DMEM/F12 (Hyclone) containing 5% horse serum, 20 ng/ml EGF, 10 μg/ml insulin, 100 ng/ml cholera toxin, 0.5 mg/ml hydrocortisone, 100 U/ml penicillin/streptomycin, and labeled/unlabeled glucose and glutamine at 18 mM and 2.5 mM, respectively. […] The internal gas content was monitored using Fyrite gas analyzers (Bacharach) for CO2 and O2. […]
(§2) Metabolite Extraction and Gas Chromatography/Mass Spectrometry (GC/MS) Analysis. […] In some ISA experiments, cells were trypsinized, counted, and pelleted prior to lipid extraction as described above. […]

143B cells = test: Isotopomer Spectral Analysis (ISA) of lipogenesis in 143B cells
Protocol: as §1, §2

UMRC2 cells = test: ISA of lipogenesis and glucose oxidation in UMRC2 cells expressing ARNT-targeting shRNAs; details: UMRC2 cells (VHL-deficient)
Protocol: as §1, §2

[2] = system: MDA-MB-231 breast carcinoma; test: Reductive carboxylation by [1-13C]glutamine labeling and GC/MS in MDA-MB-231 cells expressing shRNAs
Protocol: as §1, with “respectively. PRC3, WT8, pTV, and pTR cell lines were subcloned from the 786-O cell line as previously described (42, 43). For isotopic labeling experiments, cells were cultured in 6 well plates in glucose- and glutamine-free DMEM (Sigma) containing 10% dialyzed FBS (Invitrogen), 100 U/ml P/S, naturally labeled glucose or glutamine, and the appropriate tracer, including [U-^13C5]glutamine (Isotec), [5-^13C]glutamine (C/D/N Isotopes), [1-^13C]glutamine, [U-^13C6]glucose, [1,2-^13C2]glucose (all from Cambridge Isotope Labs). Steady state labeling of organic and amino acids was accomplished by culturing subconfluent cells in tracer medium for 24 hours.” for “respectively.”
as §2

A549 cells [3] = test: Reductive glutamine metabolism by isotopic labeling and GC/MS in A549 cells expressing shRNAs; details: [U-13C5]glutamine, aspartate, malate, fumarate
Protocol: as §1, with “respectively. PRC3, WT8, pTV, and pTR cell lines were subcloned from the 786-O cell line as previously described (42, 43). For isotopic labeling experiments, cells were cultured in 6 well plates in glucose- and glutamine-free DMEM (Sigma) containing 10% dialyzed FBS (Invitrogen), 100 U/ml P/S, naturally labeled glucose or glutamine, and the appropriate tracer, including [U-^13C5]glutamine (Isotec), [5-^13C]glutamine (C/D/N Isotopes), [1-^13C]glutamine, [U-^13C6]glucose, [1,2-^13C2]glucose (all from Cambridge Isotope Labs). Steady state labeling of organic and amino acids was accomplished by culturing subconfluent cells in tracer medium for 24 hours.” for “respectively.”
as §2

HCT116 colon carcinoma = test: Reductive carboxylation by [1-13C]glutamine labeling and GC/MS in HCT116 cells expressing shRNAs
Protocol: as §1, with “respectively. PRC3, WT8, pTV, and pTR cell lines were subcloned from the 786-O cell line as previously described (42, 43). For isotopic labeling experiments, cells were cultured in 6 well plates in glucose- and glutamine-free DMEM (Sigma) containing 10% dialyzed FBS (Invitrogen), 100 U/ml P/S, naturally labeled glucose or glutamine, and the appropriate tracer, including [U-^13C5]glutamine (Isotec), [5-^13C]glutamine (C/D/N Isotopes), [1-^13C]glutamine, [U-^13C6]glucose, [1,2-^13C2]glucose (all from Cambridge Isotope Labs). Steady state labeling of organic and amino acids was accomplished by culturing subconfluent cells in tracer medium for 24 hours.” for “respectively.”
as §2

A549 cells [4] = test: 13C Metabolic Flux Analysis (MFA) of A549 cells expressing IDH1-targeting shRNAs, [U-13C5]glutamine tracer
Protocol: Cell Culture, Isotopic Labeling, and Hypoxia. All cell lines were cultured in Dulbecco's Modified Eagle Medium (DMEM; Mediatech) containing 10% fetal bovine serum (FBS; Invitrogen) and 100 U/ml penicillin/streptomycin (P/S; Mediatech) unless otherwise mentioned. Cell lines were obtained from ATCC unless otherwise noted. The VC3 glioma cell line was provided by Tim Lautenschlaeger (Ohio State University), MDA-MB-231 and HCT116 cell lines were provided by Ferdinando Chiaradonna (University of Milano-Bicocca), MRC5 cells were provided by Stephen Lippard (MIT), SN12C, ACHN, and 786-O cells were provided by Kevin Courtney and Lew Cantley (Harvard Medical School), and MCF10A cells were provided by Joan Brugge (Harvard Medical School), and Huh7 cells were provided by Mike Hemann (MIT). MCF10A cells were cultured in custom DMEM/F12 (Hyclone) containing 5% horse serum, 20 ng/ml EGF, 10 μg/ml insulin, 100 ng/ml cholera toxin, 0.5 mg/ml hydrocortisone, 100 U/ml penicillin/streptomycin, and labeled/unlabeled glucose and glutamine at 18 mM and 2.5 mM, respectively. PRC3, WT8, pTV, and pTR cell lines were subcloned from the 786-O cell line as previously described (42, 43). For isotopic labeling experiments, cells were cultured in 6 well plates in glucose- and glutamine-free DMEM (Sigma) containing 10% dialyzed FBS (Invitrogen), 100 U/ml P/S, naturally labeled glucose or glutamine, and the appropriate tracer, including [U-^13C5]glutamine (Isotec), [5-^13C]glutamine (C/D/N Isotopes), [1-^13C]glutamine, [U-^13C6]glucose, [1,2-^13C2]glucose (all from Cambridge Isotope Labs). Steady state labeling of organic and amino acids was accomplished by culturing subconfluent cells in tracer medium for 24 hours. Labeling of fatty acids for Isotopomer Spectral Analysis (USA) was conducted over 3-5 days of culture in an excess of tracer medium (3-4 ml/well in a 6 well plate) to prevent nutrient depletion. Hypoxic culture was conducted by feeding a custom mixture of 1% O2, 5% CO2, and 94% N2 to a standard incubator controlled at 5% CO2. HEPES (Mediatech) was added to the culture medium at 20 mM to maintain pH between normoxic and hypoxic cultures. The internal gas content was monitored using Fyrite gas analyzers (Bacharach) for CO2 and O2. O2 levels were confirmed at 1.5-2% during hypoxic culture.
Stable cell cultures with decreased IDH1 and IDH2 expression were generated via lentiviral-mediated shRNA expression. pLKO.1 lentiviral vectors targeting IDH1 with shRNA sequences of […] TT (IDH1a; TRCN0000027298; SEQ ID NO:1) and […] TT (IDH1b; TRCN0000027289; SEQ ID NO:2), IDH2 with shRNA sequence […] TT (TRCN0000027225; SEQ ID NO:3). For controls, either non-targeting control shRNA (SHC002; Sigma) or pLKO.1 scrambled control vector (44)(Addgene) were used. pLKO.1 vector targeting ARNT with shRNA sequence […] TT (TRCN0000003819; SEQ ID NO:4) was obtained from Open Biosystems.
HEK293T cells were co-transfected with pLKO.1 vectors and packaging plasmids to produce lentivirus. Filtered supernatants were used for infection, and cells were selected with puromycin (2 μg/ml) for at least two passages before initiating tracer and flux experiments.
Metabolite Extraction and Gas Chromatography/Mass Spectrometry (GC/MS) Analysis. At the conclusion of culture, cells were rinsed with 1 ml ice cold PBS and quenched with 0.4 ml ice cold methanol. An equal volume of water was added, and cells were collected in tubes by scraping with a pipette. One volume of ice cold chloroform was added to each tube, and the extracts were vortexed at 4° C. for 30 minutes. Samples were centrifuged at 14,000 g for 5 minutes at room temperature. For analysis of polar metabolites, the aqueous phase was transferred to a new tube for evaporation under airflow. For ISA experiments, the non-polar fraction was collected and evaporated under airflow. In some ISA experiments, cells were trypsinized, counted, and pelleted prior to lipid extraction as described above. […]

143B osteosarcoma = test: Reductive carboxylation by [1-13C]glutamine labeling and GC/MS in 143B cells expressing shRNAs
Protocol: as §1, §2

[5] = system: Hypoxia response element- (HRE-) driven reporter; test: Hypoxia response element (HRE)-driven reporter in HCT116 cells expressing IDH1-targeting shRNAs; details: normal culture, hypoxia, or 1 mM DMOG, 18 hours
Protocol: Luciferase Assays. Subconfluent cells in 6 well plates were co-transfected with 1 μg of a firefly luciferase vector and 50 ng Renilla luciferase vector (pRL-TK; Promega) using Fugene 6 reagent. The ODD-Luciferase and Luciferase vectors were obtained from Addgene and based off of the pcDNA3.1 vector (49). Hypoxia responsive element-luciferase (HRE-Luc) vectors were used as described (50). Approximately 24 hours after transfection, medium was changed and cells were placed under normoxia, hypoxia, or treated with 1 mM dimethyloxalylglycine (DMOG). After 18 hours of treatment, cells were lysed and luciferase activity was determined using the Dual Luciferase Reporter Assay system (Promega) according to the manufacturer's instructions.

[6] = Anaplerotic reactions, exchange flux
[7] = Anaplerotic reactions, net flux
[8] = Pentose Phosphate Pathway, exchange flux
[9] = Pentose Phosphate Pathway, net flux

## CCGGGAGAAGTCAGATGGTTTATTTCTCGAGAAATAAACCATCTGACTTCTCTTT TT (CCGGGAGAAGTCAGATGGTTTATTTCTCGAGAAATAAACCATCTGACTTCTCTTTTT; expressed or natural sequence) [ARNT shRNA, pLKO.1 vector targeting ARNT with shRNA, obtained from Open Biosystems]
A549 cells [1]
  utilization of [5-13C]glutamine for lipogenesis: reduced
143B cells
  utilization of [5-13C]glutamine for lipogenesis: reduced
UMRC2 cells
  glucose oxidation and reductive glutamine metabolism: modulates glucose oxidation and reductive glutamine metabolism

## CCGGCGAATCATTTGGGAATTGATTCTCGAGAATCAATTCCCAAATGATTCGTTT TT (CCGGCGAATCATTTGGGAATTGATTCTCGAGAATCAATTCCCAAATGATTCGTTTTT; expressed or natural sequence) [IDH1b, pLKO.1 lentiviral vector shRNA targeting IDH1]
[2]
  reductive carboxylation flux (M1 label from [1-13C]glutamine): reduces reductive carboxylation flux
A549 cells [3]
  M3 mass isotopomers derived from [U-13C5]glutamine (reductive carboxylation): decrease in reductive carboxylation
HCT116 colon carcinoma
  reductive carboxylation flux (M1 label from [1-13C]glutamine): reduces reductive carboxylation flux
A549 cells [4]; Amino acids, exchange flux
  Flux Pyr.m <−> Ala: 0.00 fmol/cell*hr
A549 cells [4]; Amino acids, net flux
  Flux Gln −> Glu: 24.57 fmol/cell*hr
  Flux Gln.x −> Gln: 25.06 fmol/cell*hr
  Flux Glu −> Glu.x: 19.91 fmol/cell*hr
  Flux Pyr.m −> Ala: 0.42 fmol/cell*hr
A549 cells [4]; [6]
  Flux Glu <−> Akg: 442.50 fmol/cell*hr
  Flux Mal <−> Pyr.m + CO2: 1.64 fmol/cell*hr
  Flux Oac <−> Asp: 372.30 fmol/cell*hr
A549 cells [4]; [7]
  Flux Glu −> Akg: 4.16 fmol/cell*hr
  Flux Mal −> Pyr.m + CO2: 3.56 fmol/cell*hr
  Flux Oac −> Asp: 0.60 fmol/cell*hr
  Flux Pyr.m + CO2 −> Oac: 0.00 fmol/cell*hr
A549 cells [4]; Biomass, net flux
  Flux 0.6*Asp + 0.5*Glu + 0.42*Ala + 0.5*Gln −> Biomass: 1.00 fmol/cell*hr
  Flux AcCoA.c −> Fatty acids: 11.28 fmol/cell*hr
  Flux Cit −> AcCoA.c + Oac: 11.28 fmol/cell*hr
  Flux P5P −> NTP: 0.50 fmol/cell*hr
A549 cells [4]; Dilution/Mixing
  Flux 0*Pyr.c −> Pyr.mnt: 0.82 fmol/cell*hr
  Flux 0*Pyr.m −> Pyr.mnt: 0.18 fmol/cell*hr
  Flux 0*Suc −> Suc.mnt: 0.85 fmol/cell*hr
  Flux Suc.d −> Suc.mnt: 0.15 fmol/cell*hr
A549 cells [4]; Dilution/Mixing, exchange flux
  Flux Pyr.c <−> Pyr.m: 49.63 fmol/cell*hr
A549 cells [4]; Dilution/Mixing, net flux
  Flux Pyr.c −> Pyr.m: 13.19 fmol/cell*hr
A549 cells [4]; Glycolysis, exchange flux
  Flux DHAP <−> GAP: 550.40 fmol/cell*hr
  Flux G6P <−> F6P: 0.00 fmol/cell*hr
  Flux GAP <−> 3PG: 160.00 fmol/cell*hr
  Flux Pyr.c <−> Lac: 695.70 fmol/cell*hr
A549 cells [4]; Glycolysis, net flux
  Flux 3PG −> Pyr.c: 217.80 fmol/cell*hr
  Flux DHAP −> GAP: 107.60 fmol/cell*hr
  Flux F6P −> DHAP + GAP: 107.60 fmol/cell*hr
  Flux G6P −> F6P: 102.60 fmol/cell*hr
  Flux GAP −> 3PG: 217.80 fmol/cell*hr
  Flux Glc.x −> G6P: 110.60 fmol/cell*hr
  Flux Lac −> Lac.x: 204.60 fmol/cell*hr
  Flux Pyr.c −> Lac: 204.60 fmol/cell*hr
A549 cells [4]; [8]
  Flux P5P + E4P <−> F6P + GAP: 1.9E+06 fmol/cell*hr
  Flux P5P + P5P <−> S7P + GAP: 6.3E+07 fmol/cell*hr
  Flux S7P + GAP <−> F6P + E4P: 1.1E+06 fmol/cell*hr
A549 cells [4]; [9]
  Flux G6P −> P5P + CO2: 8.01 fmol/cell*hr
  Flux P5P + E4P −> F6P + GAP: 2.50 fmol/cell*hr
  Flux P5P + P5P −> S7P + GAP: 2.50 fmol/cell*hr
  Flux S7P + GAP −> F6P + E4P: 2.50 fmol/cell*hr
A549 cells [4]; TCA Cycle, exchange flux
  Flux Fum <−> Mal: 1.6E+07 fmol/cell*hr
  Flux Mal <−> Oac: 124.70 fmol/cell*hr
  Flux Suc <−> Fum: 0.29 fmol/cell*hr
A549 cells [4]; TCA Cycle, exchange flux (reductive IDH flux)
  Flux Cit <−> Akg + CO2: 2.39 fmol/cell*hr
A549 cells [4]; TCA Cycle, net flux
  Flux AcCoA.m + Oac −> Cit: 16.33 fmol/cell*hr
  Flux Akg −> Suc + CO2: 9.21 fmol/cell*hr
  Flux Fum −> Mal: 9.21 fmol/cell*hr
  Flux Mal −> Oac: 5.65 fmol/cell*hr
  Flux Pyr.m −> AcCoA.m + CO2: 16.33 fmol/cell*hr
  Flux Suc −> Fum: 9.21 fmol/cell*hr
A549 cells [4]; TCA Cycle, net flux (IDH)
  Flux Cit −> Akg + CO2: 5.05 fmol/cell*hr
143B osteosarcoma
  reductive carboxylation flux: reduces reductive carboxylation flux
[5]
  HRE-driven reporter levels (hypoxia signaling): does not increase hypoxia signaling and stabilization
